In US20240199613A1 (TAKEDA PHARMACEUTICAL COMPANY LIMITED, priority 2021, published 2024):

Legend:
[1] = molecular target: human activated kallikrein enzyme (Homo sapiens, UniProt P03952); experiment: Inhibition of activated plasma kallikrein, fluorogenic peptide substrate (PFR-AMC) assay, 500 pM enzyme format; format: biochemical; details: 500 pM activated kallikrein, 300 uM PFR-AMC, 30 min preincubation, 10 min reaction, room temperature; read-out: Primary Dose Response Assay: Average EC50
Description: Compounds were evaluated for inhibition of the human activated kallikrein enzyme in two formats of an assay employing a fluorogenic peptide substrate. In one assay format, the concentrations of reagents were as follows: 20 mM Tris pH 7.5, 1 mM EDTA, 150 mM sodium chloride, 0.1% PEG-400, 0.1% Triton X-100, 500 pM activated kallikrein enzyme, 300 uM Pro-Phe-Arg-7-amido-4-methylcoumarin (PFR-AMC) substrate. Prior to reaction initiation with substrate, enzyme and inhibitors were preincubated for 30 min at room temperature. After initiation with substrate, reactions were incubated for 10 min at room temperature and fluorescence emission at 460 nm from 380 nm excitation measured with a microplate reader. In another assay format, the concentrations of reagents were as follows: 20 mM Tris pH 7.5, 1 mM EDTA, 150 mM sodium chloride, 0.1% PEG-400, 0.1% Triton X-100, 5 pM activated kallikrein enzyme, 300 uM PFR-AMC substrate. Prior to reaction initiation with substrate, enzyme and inhibitors were preincubated for 30 min at room temperature. After initiation with substrate, reactions were incubated for 18 hr at room temperature and fluorescence emission at 460 nm from 380 nm excitation measured with a microplate reader.
Table 6 provides the results of the assay in the format with 500 pM activated kallikrein assay.

[2] = molecular target: T1, plasma kallikrein (Homo sapiens, UniProt P03952); experiment: Neat human plasma assay: contact pathway-activated (FXIIa) plasma, PFR-AMC substrate; format: biochemical; details: citrated human plasma (78% final), 10 nM human FXIIa, 100 μM PFR-AMC, room temperature
T1 construct: from tissue; host or cells: sodium citrate collected human plasma (78% final)
Description: To analyze inhibition of plasma kallikrein in an ex vivo setting, the potency of compounds was measure in contact pathway-activated plasma assays. In a fluorogenic peptide substrate assay, test compounds dissolved in DMSO were added to sodium citrate collected human or rat plasma in a 96-well microplate. Alternatively, citrated plasma was collected from rats administered the compounds orally or by IV. 10 nM of human FXIIa (Enzyme Research Laboratories) diluted in pKal buffer (20 mM Tris-HCl, pH 7.5, 150 mM NaCl, 1 mM EDTA, 0.1% PEG-8000, and 0.1% Triton X-100) was added to the plasma, followed by the 100 μM of the profluorescent, synthetic plasma kallikrein substrate PFR-AMC (also diluted in pKal buffer). Final plasma concentration in the reaction was 78%. Fluorescence was immediately monitored by excitation/emission wavelengths of 360 nm/480 nm respectively over a period of 5 minutes in a microplate reader. The resulting linear increase in fluorescence emission (reflecting pKal proteolysis of PFR-AMC substrate) was fit to extract a proteolytic rate (fluorescent units over time), and this rate was subsequently plotted against compound inhibitor concentration. Resulting plots were fit to a standard 4-parameter IC50/IC90 equation to determine min/max values, IC50/90, and slope. All experimental steps were performed at room temperature.

Chain of human activated kallikrein enzyme (P03952 391-638 limits assumed): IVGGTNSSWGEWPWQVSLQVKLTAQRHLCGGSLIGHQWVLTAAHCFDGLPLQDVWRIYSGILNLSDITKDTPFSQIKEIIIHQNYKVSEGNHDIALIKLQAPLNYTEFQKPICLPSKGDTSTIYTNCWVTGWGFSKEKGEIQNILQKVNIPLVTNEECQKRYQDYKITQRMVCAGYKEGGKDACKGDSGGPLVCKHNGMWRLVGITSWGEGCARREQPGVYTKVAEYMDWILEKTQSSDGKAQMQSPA
Chain of human activated kallikrein enzyme (P03952 20-390 partner limits assumed): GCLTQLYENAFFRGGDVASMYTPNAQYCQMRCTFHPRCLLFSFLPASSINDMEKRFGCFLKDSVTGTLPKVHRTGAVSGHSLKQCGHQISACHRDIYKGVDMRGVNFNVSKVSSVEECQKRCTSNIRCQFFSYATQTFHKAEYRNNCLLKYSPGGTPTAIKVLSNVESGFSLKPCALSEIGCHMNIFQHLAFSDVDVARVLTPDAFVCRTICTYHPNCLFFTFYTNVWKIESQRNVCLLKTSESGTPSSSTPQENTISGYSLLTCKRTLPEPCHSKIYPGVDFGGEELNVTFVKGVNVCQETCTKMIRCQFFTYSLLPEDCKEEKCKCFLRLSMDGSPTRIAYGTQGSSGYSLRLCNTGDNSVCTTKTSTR
T1 sequence (P03952 391-638 limits assumed): as the sequence (P03952 391-638 limits assumed) above
T1 sequence (P03952 20-390 partner limits assumed): as the sequence (P03952 20-390 partner limits assumed) above

Compound: Cc1ccnc([C@H]2C[C@@H]2c2cc(OCCO)c3ccc(NCc4cn5cc(C6CC6)cc(N6CC(=O)N(C)C6=O)c5n4)cc3n2)n1 (racemic) [Example 69, rac-1-(6-cyclopropyl-2-(((4-(2-hydroxyethoxy)-2-((1S*,2S*)-2-(4-methylpyrimidin-2-yl)cyclopropyl)quinolin-7-yl)amino)methyl)imidazo[1,2-a]pyridin-8-yl)-3-methylimidazolidine-2,4-dione]
- EC50 [1]: ≤ 0.001 µM
- IC90 [2]: 0.4 to 1.5 µM

Compound: Cc1ccnc([C@H]2C[C@@H]2c2cc(C(C)(C)O)c3ccc(NCc4cn5cc(C6CC6)cc(N6CC(=O)N(C)C6=O)c5n4)cc3n2)n1 (racemic) [Example 95, rac-1-(6-cyclopropyl-2-(((4-(2-hydroxypropan-2-yl)-2-((1S*,2S*)-2-(4-methylpyrimidin-2-yl)cyclopropyl)quinolin-7-yl)amino)methyl)imidazo[1,2-a]pyridin-8-yl)-3-methylimidazolidine-2,4-dione]
- EC50 [1]: ≤ 0.001 µM
- IC90 [2]: 0.4 to 1.5 µM

Compound: Cc1ccnc([C@H]2C[C@@H]2c2ccc3ccc(NCc4cn5cc(C6CC6)cc(N6CC(=O)NC6=O)c5n4)cc3n2)n1 (racemic) [Example 81, rac-1-(6-cyclopropyl-2-(((2-((1S*,2S*)-2-(4-methylpyrimidin-2-yl)cyclopropyl)quinolin-7-yl)amino)methyl)imidazo[1,2-a]pyridin-8-yl)imidazolidine-2,4-dione]
- EC50 [1]: ≤ 0.001 µM
- IC90 [2]: 1.5 to 10 µM

Compound: Cc1ccnc([C@H]2C[C@@H]2c2cc(N3CC4(COC4)C3)c3ccc(NC(C)c4cn5cc(C6CC6)cc(N6CC(=O)N(C)C6=O)c5n4)cc3n2)n1 (stereo partly drawn) [Example 99, 1-(6-cyclopropyl-2-(1-((2-((1S,2S)-2-(4-methylpyrimidin-2-yl)cyclopropyl)-4-(2-oxa-6-azaspiro[3.3]heptan-6-yl)quinolin-7-yl)amino)ethyl)imidazo[1,2-a]pyridin-8-yl)-3-methylimidazolidine-2,4-dione]
- EC50 [1]: 0.001 to 0.01 µM
- IC90 [2]: 0.4 to 1.5 µM

Compound: Cc1ccnc([C@H]2C[C@@H]2C2=CS(=O)(=O)c3ccc(NCc4cn5cc(C6CC6)ccc5n4)cc3N2)n1 (racemic) [Example 55, rac-6-(((6-cyclopropylimidazo[1,2-a]pyridin-2 yl)methyl)amino)-3-((1S*,2S*)-2-(4-methylpyrimidin-2-yl)cyclopropyl)-4H-benzo[b][1,4]thiazine 1,1-dioxide]
- EC50 [1]: ≤ 0.001 µM
- IC90 [2]: 1.5 to 10 µM

Compound: Cc1ccnc([C@H]2C[C@@H]2c2cc(CO)c3ccc(NCc4cn5cc(C6CC6)cc(N6CC(=O)N(C)C6=O)c5n4)cc3n2)n1 (racemic) [Example 77, rac-1-(6-cyclopropyl-2-(((4-(hydroxymethyl)-2-((1S*,2S*)-2-(4-methylpyrimidin-2-yl)cyclopropyl)quinolin-7-yl)amino)methyl)imidazo[1,2-a]pyridin-8-yl)-3-methylimidazolidine-2,4-dione]
- EC50 [1]: ≤ 0.001 µM
- IC90 [2]: 0.4 to 1.5 µM

Compound: COCc1cc(NCc2cn3cc(C4CC4)cc(N4CC(=O)N(C)C4=O)c3n2)cc2nc([C@H]3C[C@@H]3c3nccc(C)n3)ccc12 (racemic) [Example 75, rac-1-(6-cyclopropyl-2-(((5-(methoxymethyl)-2-((1S*,2S*)-2-(4-methylpyrimidin-2-yl)cyclopropyl)quinolin-7-yl)amino)methyl)imidazo[1,2-a]pyridin-8-yl)-3-methylimidazolidine-2,4-dione]
- EC50 [1]: ≤ 0.001 µM
- IC90 [2]: 0.4 to 1.5 µM

Compound: Cc1ccnc([C@H]2C[C@@H]2c2cc(CC#N)c3ccc(NCc4cn5cc(C6CC6)cc(N6CC(=O)N(C)C6=O)c5n4)cc3n2)n1 (racemic) [Example 85, rac-2-(7-(((6-cyclopropyl-8-(3-methyl-2,4-dioxoimidazolidin-1-yl)imidazo[1,2-a]pyridin-2-yl)methyl)amino)-2-((1S*,2S*)-2-(4-methylpyrimidin-2-yl)cyclopropyl)quinolin-4-yl)acetonitrile]
- EC50 [1]: ≤ 0.001 µM
- IC90 [2]: 1.5 to 10 µM

Compound: Cc1ccnc(C2CC2c2cc(=O)c3ccc(NCc4cn5cc(C6CC6)cc(N6CC(=O)N(C)C6=O)c5n4)cc3[nH]2)n1 (single isomer, unassigned) [Example 12, 1-(6-cyclopropyl-2-(((2-(2-(4-methylpyrimidin-2-yl)cyclopropyl)-4-oxo-1,4-dihydroquinolin-7-yl)amino)methyl)imidazo[1,2-a]pyridin-8-yl)-3-methylimidazolidine-2,4-dione]
- EC50 [1]: ≤ 0.001 µM
- IC90 [2]: 0.4 to 1.5 µM

Compound: Cc1ccnc([C@H]2C[C@@H]2c2cc(-c3cnn(C)c3)c3ccc(NCc4cn5cc(C6CC6)cc(N6CC(=O)N(C)C6=O)c5n4)cc3n2)n1 [Example 27, 1-(6-cyclopropyl-2-(((4-(1-methyl-1H-pyrazol-4-yl)-2-((1S,2S)-2-(4-methylpyrimidin-2-yl)cyclopropyl)quinolin-7-yl)amino)methyl)imidazo[1,2-a]pyridin-8-yl)-3-methylimidazolidine-2,4-dione]
- EC50 [1]: ≤ 0.001 µM
- IC90 [2]: 0.4 to 1.5 µM

Compound: Cc1ccnc([C@@H]2C[C@H]2C2=NS(=O)(=O)c3ccc(NCc4cn5cc(C6CC6)ccc5n4)cc3N2)n1 (single isomer, unassigned) [Example 66]
- EC50 [1]: 0.01 to 0.1 µM

Compound: Cc1ccnc([C@@H]2C[C@H]2c2ccc3ccc(NCc4cn5cc(C6CC6)cc(N6CC(=O)N(C)C6=O)c5n4)cc3n2)n1 (single isomer, unassigned) [Example 58]
- EC50 [1]: 0.01 to 0.1 µM

Compound: Clc1cccc([C@H]2C[C@@H]2c2nc3ccc(NCc4cn5cc(C6CC6)ccc5n4)cc3[nH]2)c1 [Example 45, 2-((1S,2S)-2-(3-chlorophenyl)cyclopropyl)-N-((6-cyclopropylimidazo[1,2-a]pyridin-2-yl)methyl)-1H-benzo[d]imidazol-6-amine]
- EC50 [1]: > 6.5 µM

Compound: O=c1nc([C@H]2C[C@@H]2c2cccc(Cl)c2)[nH]c2cc(NCc3cn4cc(C5CC5)ccc4n3)ccc12 [Example 50, 2-((1S,2S)-2-(3-chlorophenyl)cyclopropyl)-7-(((6-cyclopropylimidazo[1,2-a]pyridin-2-yl)methyl)amino)quinazolin-4 (1H)-one]
- EC50 [1]: 0.01 to 0.1 µM

Compound: Cc1ccnc([C@H]2C[C@@H]2c2ccc3c(ncn3Cc3cn4cc(C5CC5)cc(N5CC(=O)N(C)C5=O)c4n3)n2)n1 (racemic) [Example 72, rac-1-(6-cyclopropyl-2-((5-((1S*,2S*)-2-(4-methylpyrimidin-2-yl)cyclopropyl)-1H-imidazo[4,5-b]pyridin-1-yl)methyl)imidazo[1,2-a]pyridin-8-yl)-3-methylimidazolidine-2,4-dione]
- EC50 [1]: 0.1 to 6.5 µM

Compound: COc1cc([C@H]2C[C@@H]2c2cccc(Cl)c2)nc2cc(NCc3cn4cc(C5CC5)cc(N5CC(=O)N(C)C5=O)c4n3)ncc12 [Example 18, 1-(2-(((2-((1S,2S)-2-(3-chlorophenyl)cyclopropyl)-4-methoxy-1,6-naphthyridin-7-yl)amino)methyl)-6-cyclopropylimidazo[1,2-a]pyridin-8-yl)-3-methylimidazolidine-2,4-dione]
- EC50 [1]: 0.01 to 0.1 µM

Compound: COc1cc([C@H]2C[C@@H]2c2cccc(Cl)c2)nc2cc(N(Cc3cn4cc(C5CC5)ccc4n3)C(=O)OC(C)(C)C)ccc12 (racemic) [Example 47, rac-tert-butyl (2-((1S*,2S*)-2-(3-chlorophenyl)cyclopropyl)-4-methoxyquinolin-7-yl)((6-cyclopropylimidazo[1,2-a]pyridin-2-yl)methyl)carbamate]
- EC50 [1]: > 6.5 µM
